Measurements: patent US20230043407A1, “ELECTROSTATICALLY GATED NANOFLUIDIC MEMBRANES FOR CONTROL OF MOLECULAR TRANSPORT” (THE METHODIST HOSPITAL SYSTEM, priority 2020, published 2023)

Assay: In vitro release rate modulation across electrostatically gated nanofluidic membrane
Conditions: active phases, gate voltage −1.5 V, vs passive phases (0 V); sink 0.01×PBS
Procedure: Release modulation experiments were performed with a custom made, two reservoirs fixture comprising of a macro cuvette (sink reservoir) and a drug reservoir. The cuvette was glued with UV epoxy (OG116, Epoxy Technologies, Inc.) to a PMMA (McMaster Carr, Douglasville, Ga.) membrane holder. The drug reservoir (500 μL capacity), made of PMMA, was secured to the membrane holder through 2 SS316L M3 screws. The membrane under testing was clamped between the two PMMA pieces, with 2 O-rings (2418T113, McMaster Carr, Douglasville, Ga.) to avoid solution leakage. The reservoir was capped with a silicone plugs (9277K87, McMaster Carr, Douglasville, Ga.).
Release modulation experiments were performed using 300 nm membranes with both poly-Si and SiC deposition. […]
The assembled diffusion fixtures were then loaded in a robotic carousel^20, which is connected to a Cary 50 UV-vis spectrophotometer (Agilent Technologies). Absorbance measurements of the sink reservoir were automatically performed every 5 minutes. […]
Graphs were plotted and statistical data analyses were performed with GraphPad Prism 8 (version 8.1.1; GraphPad Software, Inc., La Jolla, Calif.). […] Statistical significance was determined using paired t-tests. […]

## Alexa Fluor 647 [AF647]
  reduction of release rate: 60%
